What was measured:
[1] = system: p21^WAF1 protein in MCF-7 cells; test: Induction of p21^WAF1 protein in MCF-7 cells (immunoblotting); type: cell-based, human
Method: (a) DO-1, DO-2 and 1801 monoclonal antibodies recognise the N-terminal region of p53 protein, monoclonal antibodies DO-11 and DO-12 recognise different epitopes in the core domain of p53 protein, monoclonal antibodies Bp53-10 and Pab421 recognise the C-terminal region of p53 protein. (b) Monoclonal antibody 118 recognises p21^WAF1.
For direct immunoblotting, total cellular protein lysates were prepared by harvesting cells in hot Laemmli electrophoresis sample buffer. Proteins were then separated by SDS-polyacrylamide gel electrophoresis (SDS-PAGE) on 10% gel and transferred onto a nitrocellulose membrane in Bio.Rad Mini Trans-Blott Electrophoretic Transfer Cell for 2 hrs at 4° C. applying 150 mA in transfer buffer ([…], 190 mM glycine and 20% methanol). Prestained molecular weight markers (Bio-Rad) were run in parallel. The blotted membranes were blocked in 5% milk and 0.1% Tween 20 in PBS for 2 hrs and probed overnight with monoclonal antibodies. After washing 3 times in PBS plus 0.1% Tween 20, peroxidase conjugated rabbit anti-mouse immunoglobulin antiserum (Dako, Denmark) diluted 1:1000 was used as the secondary antibody. To visualise peroxidase activity, ECL reagents from […] were used according to the manufacturer instructions.
MCF7-DDp53 cell line was derived from MCF-7 parental cell line by stable […] with plasmid pCMVneonDDp53 coding for dominant negative truncated mouse p53 protein including amino acid residues 1-14 and 302-390 under the control of at the CMV promoter. The control cell line MCF-7neo was derived by transfecting MCF-7 cells with pCMVneo vector. Transfections were performed using the Effectene transfection reagent (QIAGEN, Germany) as recommended by the supplier. Stable transfectants were selected at 2 mg/ml G418 sulphate (Life Technologies). The expression of Ddp53 miniprotein in MCF-7Ddp53 cell line has been examined by immunoblotting with Bp53-10 monoclonal antibody. Independently isolated MCF-7Dp53 clones 9, 12 and 14 expressing high levels of Ddp53 miniprotein and MCF-7-neo clones 3, 4 and 7 were used. […]

[2] = system: P388D1 leukemia transplanted intraperitoneally; test: In vivo anticancer activity, survival model of P388D1 leukemia; settings: DBA-2 mice, orally twice daily 250 mg/kg, Days 1-3 and 7-9
Method: DBA-2 mice were used as a host. One day following the leukemia transplantation, treatment with 105 was initiated. […] Survival analysis of treated animals (10 mice/group) was preformed in comparison with vehicle treated mice using Kaplan-Meier method and the significance was evaluated by the log-rank test. Body weight of experimental animals was evaluated in parallel in order to reflect toxicity and efficacy of therapy. Comparative analysis of body weight was performed using […].

HSV-1-deltaTK = test: Plaque number reduction assay, HSV-1-deltaTK on HFFF; type: cell-based; settings: HSV-1 thymidine kinase (TK) deletion mutant on HFFF
HSV-2 = test: Plaque number reduction assay, HSV-2 on HFFF; type: cell-based, HSV-2 strain HG52
VV = type: cell-based, Vaccinia virus strain WR; settings: Vaccinia virus on HFFF
MV = MV syncytium reduction assay in B95a cells; type: cell-based, Measles virus wildtype strain WTFb
[3] = system: human T-lymphoblastoid leukaemic cell line CEM; test: In vitro cytotoxic activity (Calcein AM, 72 hours), CEM; settings: read-out: Cytotoxicity IC50 CEM
[4] = system: human osteogenic sarcoma HOS; test: In vitro cytotoxic activity (Calcein AM, 72 hours), HOS; settings: read-out: Cytotoxicity IC50 HOS
breast carcinoma MCF7 = test: In vitro cytotoxic activity (Calcein AM, 72 hours), MCF7; settings: Homo sapiens, MCF7, 72 h, read-out: Cytotoxicity IC50 MCF7
[5] = system: cervical carcinoma cells HELA; test: In vitro cytotoxic activity (Calcein AM, 72 hours), HELA; settings: Homo sapiens, read-out: Cytotoxicity IC50 HeLa
[6] = system: promyelocytic leukemia HL 60; test: In vitro cytotoxic activity (Calcein AM, 72 hours), HL 60; settings: Homo sapiens, HL-60, 72 h, read-out: Cytotoxicity IC50 HL60
[7] = system: human malignant melanoma G 361; test: In vitro cytotoxic activity (Calcein AM, 72 hours), G 361; settings: G-361, 72 h, read-out: Cytotoxicity IC50 G361
[8] = system: A549 lung adenocarcinoma xenograft; test: In vivo anticancer activity, human xenograft model of A549 lung adenocarcinoma

## CCC(CO)Nc1nc(NCc2ccccc2N)c2ncn(C(C)C)c2n1 (stereo not shown) [Compound 105, 2-({6-[(2-aminobenzyl)amino]-9-isopropyl-9H-purin-2-yl}amino)butan-1-ol]
[1]; MCF7 cells treated for 24 h, immunoblot (FIG. 2)
  p21^WAF1 level: Induction
[1]; MCF-7Ddp53 clones (dominant-negative Ddp53 miniprotein)
  p21^WAF1 induction: no p21^WAF1 induction
[1]; MCF-7 cells
  time at which enhanced level of p21^WAF1 protein was observed: 12 h
[2]
  body weight of treated animals: reducing body weight
  mean survival time: 15.4 days
[2]; P=0.0409 versus vehicle
  survival analysis (Kaplan-Meier, log-rank): significantly better survival
HSV-1-deltaTK
  inhibition of virus replication (in words): remained sensitive
HSV-2
  inhibition of virus replication (in words): inhibited replication
VV
  inhibition of virus replication (in words): inhibited equally well
MV
  inhibition of virus replication (in words): ineffective
[3]
  IC50: 4.5 µM
[4]
  IC50: 11 µM
Breast carcinoma MCF7
  IC50: 3.4 µM
[5]
  IC50: 2.5 µM
[6]
  IC50: 6.7 µM
[7]
  IC50: 8 µM
[8]; CD-1 SCID mice, orally twice daily 150 mg/kg, Days 1-3 and 7-9
  tolerability in animals: good tolerability
[8]; CD-1 SCID mice, orally twice daily 150 mg/kg, P=0.0409 versus vehicle
  tumor volume analysis: significantly smaller tumors
[8]; as printed in the A549 tumor volume paragraph
  mean survival time: 15.4 days
